Measured values published in the NIST ThermoML archive (doi:10.1016/j.jct.2013.12.025).
± gives the expanded uncertainty stated by the source.

Key:
[1] = refractive index (Na D-line) (dimensionless); conditions: 101.33 kPa, Liquid, Standard Abbe refractometry
[2] = 101 kPa, Liquid, Vibrating tube method
[3] = xn = mol fraction of the nth substance listed; conditions: 101 kPa, Liquid, Vibrating tube method, x2 = 0
[4] = refractive index (Na D-line) (dimensionless); xn = mol fraction of the nth substance listed; conditions: 101 kPa, Liquid, Standard Abbe refractometry, x2 = 0

SMILES	refractive index ([1]; 283.15 K)	refractive index ([1]; 288.15 K)	refractive index ([1]; 293.15 K)	refractive index ([1]; 298.15 K)	refractive index ([1]; 303.15 K)	mass density ([2]; 283.15 K) [kg/m3]	mass density ([2]; 288.15 K) [kg/m3]	mass density ([2]; 293.15 K) [kg/m3]	mass density ([2]; 298.15 K) [kg/m3]	mass density ([2]; 303.15 K) [kg/m3]	mass density ([3]; 283.15 K) [kg/m3]	mass density ([3]; 288.15 K) [kg/m3]	mass density ([3]; 293.15 K) [kg/m3]	mass density ([3]; 298.15 K) [kg/m3]	mass density ([3]; 303.15 K) [kg/m3]	refractive index ([4]; 283.15 K)	refractive index ([4]; 288.15 K)	refractive index ([4]; 293.15 K)	refractive index ([4]; 298.15 K)	refractive index ([4]; 303.15 K)
C=C[Si](C)(C)O[Si](C)(C)C=C [1,3-diethenyl-1,1,3,3-tetramethyldisiloxane]	1.41766 ± 0.00032	1.415 ± 0.00032	1.41236 ± 0.00032	1.4097 ± 0.00032	1.40707 ± 0.00032	822.67 ± 1	817.77 ± 1	812.92 ± 1	808 ± 1	803.07 ± 1										
COc1ccccc1 [anisole]	1.52242 ± 0.00031	1.51985 ± 0.00031	1.51724 ± 0.00031	1.5146 ± 0.00032	1.51191 ± 0.00032	1003.3 ± 1	998.62 ± 1	994.01 ± 1	989.32 ± 1	984.59 ± 1										
COc1ccccc1 [anisole] + C=C[Si](C)(C)O[Si](C)(C)C=C											1003.3 ± 1	998.62 ± 1	994.01 ± 1	989.32 ± 1	984.59 ± 1	1.52242 ± 0.00031	1.51985 ± 0.00031	1.51724 ± 0.00031	1.5146 ± 0.00032	1.51191 ± 0.00032
Clc1ccccc1 [chlorobenzene]	1.52992 ± 0.00032	1.52722 ± 0.00032	1.52446 ± 0.00032	1.52168 ± 0.00032	1.51893 ± 0.00032	1117.29 ± 1	1111.89 ± 1	1106.55 ± 1	1101.16 ± 1	1095.79 ± 1										
Clc1ccccc1 [chlorobenzene] + C=C[Si](C)(C)O[Si](C)(C)C=C											1117.29 ± 1	1111.89 ± 1	1106.55 ± 1	1101.16 ± 1	1095.79 ± 1	1.52992 ± 0.00032	1.52722 ± 0.00032	1.52446 ± 0.00032	1.52168 ± 0.00032	1.51893 ± 0.00032
CCc1ccccc1 [ethylbenzene]	1.50118 ± 0.00032	1.49845 ± 0.00032	1.49575 ± 0.00032	1.49301 ± 0.00032	1.4903 ± 0.00032	875.69 ± 1	871.3 ± 1	866.9 ± 1	862.58 ± 1	858.16 ± 1										
CCc1ccccc1 [ethylbenzene] + C=C[Si](C)(C)O[Si](C)(C)C=C											875.69 ± 1	871.3 ± 1	866.9 ± 1	862.58 ± 1	858.16 ± 1	1.50118 ± 0.00032	1.49845 ± 0.00032	1.49575 ± 0.00032	1.49301 ± 0.00032	1.4903 ± 0.00032
Fc1ccccc1 [fluorobenzene]	1.47152 ± 0.00032	1.46859 ± 0.00032	1.46571 ± 0.00032	1.46283 ± 0.00032	1.45989 ± 0.00032	1036.89 ± 1	1030.93 ± 1	1024.96 ± 1	1019.07 ± 1	1013.03 ± 1										
Fc1ccccc1 [fluorobenzene] + C=C[Si](C)(C)O[Si](C)(C)C=C											1036.89 ± 1	1030.93 ± 1	1024.96 ± 1	1019.07 ± 1	1013.03 ± 1	1.47152 ± 0.00032	1.46859 ± 0.00032	1.46571 ± 0.00032	1.46283 ± 0.00032	1.45989 ± 0.00032
O=[N+]([O-])c1ccccc1 [nitrobenzene]	1.55729 ± 0.00031	1.55485 ± 0.00031	1.55234 ± 0.00031	1.54992 ± 0.00031	1.54746 ± 0.00031	1212.99 ± 1	1208.01 ± 1	1203.05 ± 1	1198.2 ± 1	1193.25 ± 1										
O=[N+]([O-])c1ccccc1 [nitrobenzene] + C=C[Si](C)(C)O[Si](C)(C)C=C											1212.99 ± 1	1208.01 ± 1	1203.05 ± 1	1198.2 ± 1	1193.25 ± 1	1.55729 ± 0.00031	1.55485 ± 0.00031	1.55234 ± 0.00031	1.54992 ± 0.00031	1.54746 ± 0.00031
